Source: US20220274947A1, “NOVEL HETEROARYL-TRIAZOLE COMPOUNDS AS PESTICIDES” (Bayer Aktiengesellschaft, priority 2019, published 2022)

Columns and labels:
Assay type in all cases: in vivo
[1] = system: Tetranychus urticae; assay: Tetranychus urticae spray test, OP-resistant; conditions: foliar, 144 h, application rate 500 g/ha, French bean leaf disks, after 6 days
Description: Tetranychus urticae—Spray Test OP-Resistant Solvent: 78.0 parts by weight acetone • 1.5 parts by weight dimethylformamide Emulsifier: alkylarylpolyglycol ether
To produce a suitable preparation of active compound, 1 part by weight of active compound is mixed with the stated amount of solvents and is diluted with water, containing an emulsifier concentration of 1000 ppm, to the desired concentration. Further test concentrations are prepared by dilution with emulsifier containing water.
French bean (Phaseolus vulgaris) leaf disks infected with all instars of the two spotted spidermite (Tetranychus urticae), are sprayed with a preparation of the active ingredient of the desired concentration.
After 6 days mortality in % is determined. 100% means all spider mites have been killed and 0% means none of the spider mites have been killed.

[2] = system: Anopheles funestus strain FUMOZ-R; assay: Anopheles funestus test (ANPHFU surface treatment & contact assay); conditions: surface concentration 20 mg/m^2, glazed tile, exposure 30 minutes, 24 hours after contact, read-out: efficacy (mortality)
Description: Anopheles funestus Test (ANPHFU Surface Treatment & Contact Assay) Solvent: Aceton+2000 ppm rapeseed oil methyl ester (RME)
(§1) In order to produce a sufficient, active ingredient containing solution it is necessary to solve the test compound in the solvent-mix (acetone at 2 mg/ml/RME 2000 ppm). This solution is pipetted onto a glazed tile and after evaporation of the acetone, adult mosquitoes of the species Anopheles funestus strain FUMOZ-R (Hunt et al., Med. Vet. Entomol. 2005 September; 19(3): 271-275) are placed onto the dried surface. The exposure time is 30 minutes. Mortality in percent (%) is determined 24 hours after contact of the insects to the treated surface. 100% mortality means that all tested insects are dead, whereas 0% means that no insect died.

[3] = system: Myzus persicae; assay: Myzus persicae oral test; conditions: 120 h, read-out: activity (mortality)
Summary of the method: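 Percent mortality was recorded at day 5, where 0% means no aphids killed. Compound prepared from an acetone concentrate diluted in water and combined with IPL41 medium containing sugar was offered to mixed-stage green peach aphids, which sucked it through a parafilm seal.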

[4] = system: Aedes aegypti strain MONHEIM; assay: Aedes aegypti test (AEDSAE surface treatment & contact assay); conditions: exposure 30 minutes, 24 hours after contact, read-out: efficacy (mortality)
Summary of the method: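 Compound dissolved in acetone (2 mg/ml) with 2000 ppm rapeseed oil methyl ester, pipetted onto glazed tile and dried. Adult mosquitoes exposed on the surface for 30 min; percent mortality scored 24 h after contact.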

[5] = system: Blattella germanica strain PAULINIA; assay: Blattella germanica test (BLTTGE surface treatment & contact assay); conditions: surface concentration 20 mg/m^2, glazed tile, exposure 30 minutes, 24 hours after contact, read-out: efficacy (mortality)
Description: Blattella germanica Test (BLTTGE Surface Treatment & Contact Assay) Solvent: Aceton+2000 ppm rapeseed oil methyl ester (RME)
as §1, with “animals” for “mosquitoes”, “Blattella germanica” for “Anopheles funestus”, “FUMOZ-R (Hunt et al., Med. Vet. Entomol. 2005 September; 19(3): 271-275)” left out

[6] = system: Myzus persicae; assay: Myzus persicae spray test; conditions: in Brassica rapa, foliar, 120 h, read-out: activity (mortality), application rate 100 g/ha, spray, Chinese cabbage leaf disks, after 5 days
Summary of the method: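 Compound in acetone/DMF solvent diluted in water with 1000 ppm alkylarylpolyglycol ether emulsifier, sprayed onto Chinese cabbage leaf disks infested with all instars of Myzus persicae. Mortality (%) scored after 5 days.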

[7] = system: Rhipicephalus microplus; assay: Rhipicephalus (Boophilus) microplus in-vitro contact test, larval cattle tick, strain Parkhurst (BOOPMI Cont); conditions: application rate 5 μg/cm^2 (=500 g/ha), tick larvae, after 48 hours, read-out: activity (efficacy: 100% means all larvae are dead or moribund)
Summary of the method: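 Acetone solutions dried onto glass tube walls (900 ppm giving 5 μg/cm^2); 20-50 pyrethroid-resistant Parkhurst larvae added per tube and held 48 h at 27° C., 85% relative humidity. Efficacy scored by negative geotaxis as % dead or moribund larvae.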

[8] = system: Ctenocephalides felis; assay: Ctenocephalides felis oral test (CTECFE Oral); conditions: 48 h, read-out: activity (mortality)
Summary of the method: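 About 20 unfed adult cat fleas fed through parafilm on cattle blood containing compound (DMSO concentrate diluted in blood to the desired concentration). Blood held at 37 °C, fleas at room temperature. Mortality (%) scored after 2 days.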

[9] = system: Rhipicephalus microplus; assay: Rhipicephalus (Boophilus) microplus injection test (BOOPMI Inj); conditions: 168 h, application rate 4 μg/tick, injection into adult engorged female ticks, egg deposition after 7 days, read-out: activity (efficacy: 100% means all eggs are infertile)
Summary of the method: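 Five engorged adult female R. microplus ticks injected into the abdomen with 1 μL of compound diluted in DMSO, then kept in a climate chamber. Fertile egg deposition checked after 7 days; eggs without visible fertility held until hatching at about 42 days. Efficacy: 100% = all eggs infertile, 0% = all fertile.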

[10] = system: Ctenocephalides felis; assay: Ctenocephalides felis in-vitro contact test, adult cat flea (CTECFE Cont); conditions: application rate 5 μg/cm^2 (=500 g/ha), adult cat fleas, after 48 hours, read-out: activity (efficacy: 100% means all fleas are dead or moribund)
Summary of the method: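 Acetone solutions coated on glass tube inner walls (900 ppm giving 5 μg/cm^2), then 5-10 adult fleas added and held 48 h at room temperature. Fleas unable to escape a 45-50° C. heating plate within 5 min scored dead or moribund; efficacy = % dead/moribund.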

## CC(=O)N(C)c1ccc(-n2ncnc2[C@H](C)NC(=O)c2cc(Cl)cc(C(F)(F)F)c2)nc1 [II-80]
[1]
  mortality at 500 g/ha: 90%
[2]
  mortality at 20 mg/m2: 80 to 100%
[3]
  mortality at 0.8 ppm: 100%
[4]; surface concentration 4 mg/m^2, glazed tile
  mortality at 4 mg/m2: 80 to 100%
[4]; surface concentration 20 mg/m^2, glazed tile
  mortality at 20 mg/m2: 80 to 100%
[5]
  mortality at 20 mg/m2: 80 to 100%
[6]
  mortality at 100 g/ha: 90%
[7]
  pest or weed control at 5 µg/cm2: 100%
[8]
  mortality at 100 ppm: 100%
[9]
  pest or weed control at 0.004 mg: 80%
[10]
  pest or weed control at 5 µg/cm2: 100%
